PMC2680961, “Homologous desensitization of signalling by the alpha (α) isoform of the human thromboxane A2 receptor: A specific role for nitric oxide signalling” (Biochimica et Biophysica Acta, 2007)

What was measured:
TPα^S331,340A = biological target: T1, TPα^S331,340A (Homo sapiens, UniProt P21731, S331A/S340A); test: Intracellular calcium mobilization, HEK.TPα^S331,340A cells; format: cell-based
T1 construct: expressed in transfected cells
Procedure: Measurement of intracellular calcium mobilization ([Ca^2+]i) in FURA2/AM preloaded HEK 293 cell lines (2 × 10^6 cells/dish), each transiently co-transfected with pADVA (10 μg), and pCMV:Gαq (25 μg), was carried out as previously described. To investigate the effect of GRK2/βARK1 on TP-mediated [Ca^2+]i mobilization, HEK.TPα or HEK.TPβ cells (2 × 10^6 cells/dish) were co-transfected with pADVA (10 μg), pCMV:Gαq (25 μg) along with pRK5:βARK1^495–689 (25 μg), encoding a dominant negative form of GRK2/βARK1[39]. […] For each measurement of [Ca^2+]i mobilization, aliquots of cells were diluted to 0.825 × 10^6 cells/ml in HBSSHB, 1 mM CaCl2 and FURA2 fluorescence was recorded (2 ml aliquots of cells) at 37^ °C with gentle stirring with a Perkin Elmer-Cetus LS50-B spectrofluorometer at excitation wavelengths of 340 nm and 380 nm and emission wavelength of 510 nm, respectively.
Cells were stimulated with the TP agonist U46619 (1 μM) and changes in [Ca^2+]i mobilization were monitored as a function of time. […]
The vehicle had no effect on U46619-mediated [Ca^2+]i mobilization. Calibration of the signal was performed in each sample by adding 0.2% Triton X-100 to obtain the maximal fluorescence ratio (Rmax) and then 1 mM EGTA to obtain the minimal fluorescence ratio (Rmin). […]

TPβ = biological target: T2, TPβ (Homo sapiens, UniProt P21731); test: Intracellular calcium mobilization, HEK.TPβ cells; format: cell-based
T2 construct: expressed in transfected cells
T2 sequence (P21731 1-407 isoform P21731-2): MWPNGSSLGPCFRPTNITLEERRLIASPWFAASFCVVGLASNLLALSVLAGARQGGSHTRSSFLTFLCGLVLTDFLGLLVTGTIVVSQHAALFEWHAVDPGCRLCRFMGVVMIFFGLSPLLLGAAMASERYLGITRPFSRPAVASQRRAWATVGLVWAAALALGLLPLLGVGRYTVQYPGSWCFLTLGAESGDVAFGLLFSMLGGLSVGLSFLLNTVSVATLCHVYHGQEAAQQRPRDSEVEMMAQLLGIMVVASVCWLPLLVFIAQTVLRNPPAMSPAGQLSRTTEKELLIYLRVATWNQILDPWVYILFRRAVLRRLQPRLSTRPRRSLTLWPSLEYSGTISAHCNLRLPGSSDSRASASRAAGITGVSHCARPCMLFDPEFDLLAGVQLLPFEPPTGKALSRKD
Procedure: (§1) Measurement of intracellular calcium mobilization ([Ca^2+]i) in FURA2/AM preloaded HEK 293 cell lines (2 × 10^6 cells/dish), each transiently co-transfected with pADVA (10 μg), and pCMV:Gαq (25 μg), was carried out as previously described. To investigate the effect of GRK2/βARK1 on TP-mediated [Ca^2+]i mobilization, HEK.TPα or HEK.TPβ cells (2 × 10^6 cells/dish) were co-transfected with pADVA (10 μg), pCMV:Gαq (25 μg) along with pRK5:βARK1^495–689 (25 μg), encoding a dominant negative form of GRK2/βARK1[39]. Approximately 48 h post-transfection, cells were harvested by scraping, washed twice in ice-cold PBS and resuspended in HBSSHB (modified Ca^2+/Mg^2+-free Hank's buffered salt solution, containing […], pH 7.67, 0.1% bovine serum albumin (BSA)) buffer at 10^7 cells/ml and incubated in the dark with 5 μM FURA2/AM for 45 min at 37 °C. Cells were collected by centrifugation (900×g, 5 min), washed once in an equal volume of HBSSHB, and were finally resuspended in HBSSHB buffer at 10^7 cells/ml and kept at room temperature in the dark for 40 min. For each measurement of [Ca^2+]i mobilization, aliquots of cells were diluted to 0.825 × 10^6 cells/ml in HBSSHB, 1 mM CaCl2 and FURA2 fluorescence was recorded (2 ml aliquots of cells) at 37^ °C with gentle stirring with a Perkin Elmer-Cetus LS50-B spectrofluorometer at excitation wavelengths of 340 nm and 380 nm and emission wavelength of 510 nm, respectively.
(§2) Cells were stimulated with the TP agonist U46619 (1 μM) and changes in [Ca^2+]i mobilization were monitored as a function of time. To assess agonist-mediated homologous desensitization, cells (0.825 × 10^6 cells/ml; 2 ml per assay) were stimulated with 1 μM U46619 (Primary stimulation) or, as a control, with the vehicle for 4 min; thereafter, cells were collected by centrifugation (900×g, 5 min); were washed twice in 2 ml HBSSHB, 1 mM CaCl2; and finally resuspended in 2 ml HBSSHB,1 mM CaCl2 and were left to recover over various time intervals (ranging from 0 to 60 min); thereafter, cells re-stimulated with 1 μM U46619 (Secondary stimulation) and changes in [Ca^2+]i mobilization were monitored as a function of time. To assess the role of protein kinase (PK) A, PKC or PKG on U46619-mediated desensitization of TPα signalling, cells were pre-incubated with the PKA inhibitor H-89 (10 μM), the PKC inhibitor GF 109203X (50 nM) or the PKG inhibitor KT 5823 (50 nM), for 15 min and respective kinase inhibitors were maintained throughout the primary/secondary U46619-stimulations and during the washes.
The vehicle had no effect on U46619-mediated [Ca^2+]i mobilization. Calibration of the signal was performed in each sample by adding 0.2% Triton X-100 to obtain the maximal fluorescence ratio (Rmax) and then 1 mM EGTA to obtain the minimal fluorescence ratio (Rmin). The ratio of the fluorescence at 340 nm to that at 380 nm is a measure of [Ca^2+]i, which assumes a Kd of 225 nM Ca^2+ for FURA2/AM. The results presented in the figures are representative data from at least three or four independent experiments and are plotted as changes in Ca^2+i mobilized (Δ[Ca^2+]i (nM)) as a function of time (s) upon ligand stimulation. Changes in [Ca^2+]i mobilization were determined by measuring peak rises in [Ca^2+]i mobilized (Δ[Ca^2+]i) and were calculated as mean changes in Δ[Ca^2+]i ± S.E.M. (nM).

TPα^S239A = biological target: T3, TPα^S239A (Homo sapiens, UniProt P21731, S239A); test: Intracellular calcium mobilization, HEK.TPα^S239A cells; format: cell-based
T3 construct: expressed in transfected cells
T3 sequence (P21731 1-343 S239A): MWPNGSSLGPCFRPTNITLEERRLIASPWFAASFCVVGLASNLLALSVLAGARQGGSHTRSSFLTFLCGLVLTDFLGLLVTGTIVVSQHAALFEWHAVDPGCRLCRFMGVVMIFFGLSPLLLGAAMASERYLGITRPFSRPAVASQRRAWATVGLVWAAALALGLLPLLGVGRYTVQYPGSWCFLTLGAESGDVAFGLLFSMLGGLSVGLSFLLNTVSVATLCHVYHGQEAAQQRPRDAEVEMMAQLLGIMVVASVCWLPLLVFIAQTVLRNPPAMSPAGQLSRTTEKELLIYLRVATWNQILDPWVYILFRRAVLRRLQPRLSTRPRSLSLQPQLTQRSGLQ
Procedure: as §1
as §2, with “To assess the role of protein kinase (PK) A, PKC or PKG on U46619-mediated desensitization of TPα signalling, cells were pre-incubated with the PKA inhibitor H-89 (10 μM), the PKC inhibitor GF 109203X (50 nM) or the PKG inhibitor KT 5823 (50 nM), for 15 min and respective kinase inhibitors were maintained throughout the primary/secondary U46619-stimulations and during the washes.” left out
The vehicle had no effect on U46619-mediated [Ca^2+]i mobilization. Calibration of the signal was performed in each sample by adding 0.2% Triton X-100 to obtain the maximal fluorescence ratio (Rmax) and then 1 mM EGTA to obtain the minimal fluorescence ratio (Rmin). […] Changes in [Ca^2+]i mobilization were determined by measuring peak rises in [Ca^2+]i mobilized (Δ[Ca^2+]i) and were calculated as mean changes in Δ[Ca^2+]i ± S.E.M. (nM).

TPα^Δ336 = biological target: T4, TPα^Δ336 (Homo sapiens, UniProt P21731); test: [3H]SQ29,548 radioligand binding, Scatchard analysis, HEK.TPα^Δ336
T4 construct: expressed in transfected cells
T4 sequence (P21731 1-335): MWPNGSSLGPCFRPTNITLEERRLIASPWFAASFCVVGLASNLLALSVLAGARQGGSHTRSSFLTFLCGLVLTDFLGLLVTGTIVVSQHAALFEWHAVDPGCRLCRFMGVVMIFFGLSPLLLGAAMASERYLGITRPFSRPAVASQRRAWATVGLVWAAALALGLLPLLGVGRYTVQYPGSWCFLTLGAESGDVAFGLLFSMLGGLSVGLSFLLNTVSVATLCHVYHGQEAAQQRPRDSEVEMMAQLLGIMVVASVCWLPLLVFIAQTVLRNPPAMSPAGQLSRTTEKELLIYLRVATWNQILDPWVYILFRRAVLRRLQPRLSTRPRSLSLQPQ
Procedure: (§3) Cells were harvested by centrifugation at 500×g at 4 °C for 5 min and washed three times with ice-cold Ca^2+/Mg^2+-free phosphate-buffered saline (PBS). TP radioligand binding assays were carried out at 30 °C for 30 min in 100 μl reactions in the presence of 0–40 nM [^3H] […] Protein determinations were carried out using the Bradford assay.
(§4) Radioligand binding and Scatchard analysis data were analysed using GraphPad Prisim V4.0 programme (GraphPad Software Inc., San Diego CA, USA). Statistical analyses were carried out using the unpaired Student's t test using the Statworks Analysis Package. p-values ≤ 0.01 indicated statistically significant differences.

TPα^WT = biological target: T5, TPα^WT (Homo sapiens, UniProt P21731); test: [3H]SQ29,548 radioligand binding, Scatchard analysis, HEK.TPα^WT
T5 construct: expressed in transfected cells
T5 sequence (P21731 whole entry): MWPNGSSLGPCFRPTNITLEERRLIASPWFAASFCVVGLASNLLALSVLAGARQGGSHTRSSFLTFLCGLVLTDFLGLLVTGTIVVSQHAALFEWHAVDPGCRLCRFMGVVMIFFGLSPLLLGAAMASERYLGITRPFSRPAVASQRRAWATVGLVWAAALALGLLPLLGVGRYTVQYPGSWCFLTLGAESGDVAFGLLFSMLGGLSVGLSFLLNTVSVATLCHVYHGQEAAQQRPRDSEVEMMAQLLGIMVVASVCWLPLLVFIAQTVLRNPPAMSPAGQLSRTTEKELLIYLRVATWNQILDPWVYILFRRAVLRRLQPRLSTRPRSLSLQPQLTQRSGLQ
Procedure: as §3, §4

[1] = + GRK^DN, secondary 1 μM U46619 at 15 min
[2] = − GRK^DN, secondary 1 μM U46619 at 15 min

T1 sequence (P21731 whole entry S331A/S340A): as the sequence (P21731 whole entry) above, with S331A, S340A counted along it

SMILES | Δ[Ca2+]i, U46619-induced (TPα^S331,340A; primary 1 μM U46619 4 min) [nM] | Δ[Ca2+]i, U46619-induced (TPα^S331,340A; secondary 1 μM U46619 at 15 min) [nM] | Δ[Ca2+]i, U46619-induced (TPβ; + GRK^DN, primary 1 μM U46619) [nM] | Δ[Ca2+]i, U46619-induced (TPβ; [1]) [nM] | Δ[Ca2+]i, U46619-induced (TPβ; − GRK^DN, primary 1 μM U46619) [nM] | Δ[Ca2+]i, U46619-induced (TPβ; [2]) [nM] | Δ[Ca2+]i, U46619-induced (TPα^S239A; + GRK^DN, primary 1 μM U46619) [nM] | Δ[Ca2+]i, U46619-induced (TPα^S239A; [1]) [nM] | Δ[Ca2+]i, U46619-induced (TPα^S239A; − GRK^DN, primary 1 μM U46619) [nM] | Δ[Ca2+]i, U46619-induced (TPα^S239A; [2]) [nM] | Bmax (pmol/mg protein ± S.E.M.) (TPα^Δ336) [pmol/mg protein] | Bmax (pmol/mg protein ± S.E.M.) (TPα^WT) [pmol/mg protein]
CCCCC[C@H](O)/C=C/[C@@H]1[C@@H](C/C=C\CCCC(=O)O)[C@H]2CO[C@@H]1C2 [U46619] | 160 ± 7.2 | 60 ± 10 | 195 ± 11 | 210 ± 12 | 180 ± 6.7 | 0 | 180 ± 9 | 0 | 176 ± 10.3 | 0 |  | 
O=C(O)CCC/C=C\C[C@@H]1[C@H](CNNC(=O)Nc2ccccc2)[C@H]2CC[C@@H]1O2 [SQ29,548] |  |  |  |  |  |  |  |  |  |  | 4.43 ± 0.04 | 4.52 ± 0.05
